Measurements from patent US20240287429A1, “MEDICINAL AGENT EFFECT PREDICTION SYSTEM” (Tohoku Institute of Technology, priority 2021, published 2024).

Legend:
peripheral nerves = details: stated as known; not the applicant's own test; cited from earlier work
[1] = tested on: neurites growing from nerve cells (rat DRG cells); experiment: assessment by medicinal agent effect prediction system: microscope image of neurites cultured in the microfluidic device, applied to learned model M1; type: cell-based; details: image of FIG. 10 applied to learned model M1; result shown in FIG. 11
Excerpt: FIG. 7A to FIG. 7D are observation images obtained by culturing nerve cells 41 in the microfluidic devices 30 using culture solutions respectively containing different known substances and observing, with a microscope, neurites 42 located in the second culture spaces 37. It should be noted that rat DRG cells are herein used as nerve cells 41, but various cells such as mouse DRG cells, human ES cells, or human iPS cells can be used.
Then, neurites 42 growing from the nerve cells 41 and located in the second culture space 37 were observed by the microscope 50 to obtain an observation image.
Image data based on the observation image was input as input data for assessment i42t to the system 10 through the data input receiving unit 11. In the system 10, the assessment unit 15 applied the input data for assessment i42t to the learned model M1. That is, features based on the input data for assessment i42t were applied to the input layer of the learned model M1. As a result, the result of assessment shown in FIG. 11 was output from the display output unit 17.
The percentage of correct answers is further improved by increasing the number of samples of teaching data and the number of times of learning.

| Structure (SMILES) | impairment of peripheral nerves the substance is known to cause (peripheral nerves) | result of assessment (impaired nerve site predicted by the system) [1] |
| --- | --- | --- |
| O=C1[O][Pt]2([NH][C@@H]3CCCC[C@H]3[NH]2)[O]C1=O [Oxaliplatin] | neuronopathy |  |
| CC(=O)O[C@H]1C(=O)[C@@]2(C)[C@H]([C@H](OC(=O)c3ccccc3)[C@]3(O)C[C@H](OC(=O)[C@H](O)[C@@H](NC(=O)c4ccccc4)c4ccccc4)C(C)=C1C3(C)C)[C@]1(OC(C)=O)CO[C@@H]1C[C@@H]2O [Paclitaxel] |  | high possibility of causing axonopathy |
| OC[C@H]1O[C@@](CO)(O[C@H]2O[C@H](CO)[C@@H](O)[C@H](O)[C@H]2O)[C@@H](O)[C@@H]1O [Sucrose] | not to be toxic to peripheral nerves |  |
| CC[C@]1(O)C[C@H]2CN(CCc3c([nH]c4ccccc34)[C@@](C(=O)OC)(c3cc4c(cc3OC)N(C=O)[C@H]3[C@@](O)(C(=O)OC)[C@H](OC(C)=O)[C@]5(CC)C=CCN6CC[C@]43[C@@H]65)C2)C1 [Vincristine] | axonopathy |  |
